According to publication PMC8863579, “Effects of pharmacological inhibition of the sodium‐dependent phosphate cotransporter 2b (NPT2b) on intestinal phosphate absorption in mouse and rat models” (Pharmacology Research & Perspectives, 2022):
Values joined by “and” are separate entries in the source; they are usually repeats but may differ in a detail not shown here. Equal values may be shown once.

Key:
human NPT2b = molecular target: T1, human NPT2b (Homo sapiens, UniProt O95436); assay: 33P-phosphate uptake in CHO cells expressing human NPT2b; assay type: cell-based; conditions: geometric mean; 2.5 µM phosphate, 60 min, room temperature
T1 construct: Full-Length cDNA Cloning and Generation of Cell Lines Over-Expressing Human, Mouse, and Rat NPT2b; host or cells: CHO-K1 / T-REx CHO, pcDNA5/TO, tetracycline-induced
T1 sequence (O95436 1-690): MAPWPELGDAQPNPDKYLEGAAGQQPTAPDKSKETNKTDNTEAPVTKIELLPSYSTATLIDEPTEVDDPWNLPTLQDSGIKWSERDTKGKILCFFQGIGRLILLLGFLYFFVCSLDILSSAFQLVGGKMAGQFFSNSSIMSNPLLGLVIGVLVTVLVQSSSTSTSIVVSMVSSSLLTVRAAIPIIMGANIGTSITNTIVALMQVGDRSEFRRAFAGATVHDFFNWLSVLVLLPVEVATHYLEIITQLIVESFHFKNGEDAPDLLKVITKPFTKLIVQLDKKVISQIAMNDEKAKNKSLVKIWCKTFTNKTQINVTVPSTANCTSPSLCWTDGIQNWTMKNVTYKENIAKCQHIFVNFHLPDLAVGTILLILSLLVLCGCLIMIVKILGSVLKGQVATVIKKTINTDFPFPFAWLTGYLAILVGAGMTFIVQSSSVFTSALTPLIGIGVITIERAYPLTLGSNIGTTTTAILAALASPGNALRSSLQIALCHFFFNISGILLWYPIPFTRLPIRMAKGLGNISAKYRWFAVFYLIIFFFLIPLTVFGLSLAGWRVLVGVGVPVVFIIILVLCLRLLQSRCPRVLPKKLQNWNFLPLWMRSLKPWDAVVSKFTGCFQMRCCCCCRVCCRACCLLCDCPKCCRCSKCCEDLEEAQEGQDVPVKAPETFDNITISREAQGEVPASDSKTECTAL
Method: (§1) T‐Rex™ Chinese Hamster Ovary cells (CHO; Thermo Fisher Scientific) stably expressing human, mouse, or rat NPT2b under a tetracycline‐inducible promoter were generated using standard cDNA transfection and clone selection procedures (see Supporting Information). Cells were plated in 96‐well CytoStar‐T® scintillating microplates and were incubated overnight in growth media plus 100 ng/ml of tetracycline to induce expression of NPT2b. The next day, cells were washed 3 times with 200 µl assay buffer (137 mM NaCl, 5.4 mM KCl, 2.8 mM CaCl2, 1.2 mM MgSO4, and 14 mM Tris‐HCl buffer, pH 7.5). LY3358966 serially diluted 1‐to‐3 in DMSO was added to cells with assay buffer. An equal volume of H3 ^33PO4 (PerkinElmer) in assay buffer supplemented with 5 µM potassium phosphate was then added to initiate radiolabeled phosphate (^33P‐phosphate) uptake. The final phosphate concentration was 2.5 µM and the final DMSO concentration was 1%. Following a 60‐min incubation at room temperature, an equal volume of assay buffer containing 400 µM phloretin was added to stop ^33P‐phosphate uptake. The plate was immediately read on a Wallac MicroBeta Trilux liquid scintillation counter. Percent inhibition at all concentrations tested was calculated, and IC50 values were then determined using a 4‐parameter logistic curve fitting equation.
(§2) The vendors for target cDNA are listed in supplemental Table 1. […]

mouse NPT2b = molecular target: T2, mouse NPT2b (Mus musculus, UniProt Q9DBP0); assay: 33P-phosphate uptake in CHO cells expressing mouse NPT2b; assay type: cell-based; conditions: geometric mean; 2.5 µM phosphate, 60 min, room temperature
T2 construct: Full-Length cDNA Cloning and Generation of Cell Lines Over-Expressing Human, Mouse, and Rat NPT2b; host or cells: CHO-K1 / T-REx CHO, pcDNA5/TO, tetracycline-induced
T2 sequence (Q9DBP0 1-697): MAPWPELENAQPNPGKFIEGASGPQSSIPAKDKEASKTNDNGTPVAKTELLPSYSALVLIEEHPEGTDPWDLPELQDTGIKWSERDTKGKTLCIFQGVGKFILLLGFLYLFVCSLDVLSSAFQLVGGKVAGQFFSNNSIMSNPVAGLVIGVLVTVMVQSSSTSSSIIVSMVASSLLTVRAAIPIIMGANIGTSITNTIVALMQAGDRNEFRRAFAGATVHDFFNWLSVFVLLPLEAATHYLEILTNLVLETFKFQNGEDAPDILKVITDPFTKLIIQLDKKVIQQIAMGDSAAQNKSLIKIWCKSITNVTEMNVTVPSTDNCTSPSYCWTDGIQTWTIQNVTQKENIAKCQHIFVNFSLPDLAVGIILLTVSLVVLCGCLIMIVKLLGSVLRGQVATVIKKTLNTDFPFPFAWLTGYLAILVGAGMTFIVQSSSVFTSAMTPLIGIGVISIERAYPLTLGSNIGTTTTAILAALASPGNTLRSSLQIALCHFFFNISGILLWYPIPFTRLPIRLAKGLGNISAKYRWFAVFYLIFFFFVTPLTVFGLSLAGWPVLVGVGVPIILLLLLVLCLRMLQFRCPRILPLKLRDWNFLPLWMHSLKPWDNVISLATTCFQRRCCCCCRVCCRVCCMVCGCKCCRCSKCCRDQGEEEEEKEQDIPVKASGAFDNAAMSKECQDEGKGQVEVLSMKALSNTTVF
Method: as §1, §2

[1] = system: intestinal phosphate absorption; assay: Recovery of radiolabeled phosphate in feces of mice; assay type: in vivo, mouse
Method: Male C57BL/6 male mice, 9 weeks old (23–28 g, n = 10/group), were dosed with either placebo or LY3358966 SDD (9 mg/kg API) dissolved in water at t = −4.25, −0.25, and 3.75 h. The animals were fasted from t = −4 to t = 0 h. At t = 0, the animals were dosed with radiolabeled phosphate as described above and were given free access to food. Feces were collected at 6, 24, and 48 h, digested overnight at 37°C in 1 N NaOH, and the recovered radioactivity was determined. Most of the radiolabeled phosphate was recovered in the first 24 h. […] In all cases, the investigators collecting feces were blinded to the treatment.

[2] = Unbound fraction in plasma by equilibrium dialysis; assay type: in vitro ADME; conditions: mouse plasma
Method: Male CD‐1 male mice were orally dosed with 1, 3, or 10 mg/kg API of LY3358966 SDD dissolved in water or were IV dosed with 1 mg/kg LY3358966 formulated in 25% dimethylacetamide, 15% ethanol, 10% propylene glycol, 25% 2‐pyrrolidone, and 25% water. Each dose group contained six animals. Three animals were bled at 0.25, 0.5, 1, 2, 4, 8, 12, and 24 h, with each animal being bled at alternate time points. Plasma drug levels were determined by HPLC/MS. The unbound fraction of LY3358966 in plasma was determined with equilibrium dialysis and LC‐MS/MS.

[3] = 9 mg/kg API x 3 doses at 4-h intervals

IC50 (human NPT2b): 32.4 nM | IC50 (mouse NPT2b): 43.9 nM | fraction unbound [2]: 0.005
SMILES: CC1(C)CN(C(=O)NCCCCO)CCN1Cc1cccc(C(=O)Nc2sc3c(c2C(=O)Nc2cc(F)c(CCc4ccc(C(=O)O)cc4)c(F)c2)CCCC3)c1 [LY3358966, 4‐[2‐[2,6‐difluoro‐4‐[[2‐[[3‐[[4‐(4‐hydroxybutylcarbamoyl)‐2,2‐dimethyl‐piperazin‐1‐yl]methyl]benzoyl]amino]‐4,5,6,7‐tetrahydrobenzothiophene‐3‐carbonyl]amino]phenyl]ethyl]benzoic acid]
33P Recovered in Feces (0-6 hrs), Mean ± SEM [1, 3]: 6.08 ± 1.68% | 33P Recovered in Feces (6-24 hrs), Mean ± SEM [1, 3]: 10.77 ± 1.57% | 33P Recovered in Feces (24-48 hrs), Mean ± SEM [1, 3]: 1.60 ± 0.08% | 33P Recovered in Total Feces (0-48 hrs), Mean ± SEM ([1]; 9 mg/kg API x 3 doses at 4-h intervals, 9 mg/kg): 18.44% and 18.44 ± 1.27% | increase in radiolabeled phosphate recovered in feces versus vehicle ([1]; 48 h, 9 mg/kg API x 3, 9 mg/kg): 8.6 % of the dose and 8.58 % of the dose
